Assay results published in patent publication US20050038077A1, “Tablet containing 3-[(2-{[4-(hexyloxycarbonylamino-imino-methyl)-phenylamino]-methyl}-1-methyl-1H- benzimidazol-5-carbonyl)-pyridin-2-yl-amino]-propionic acid ethylester or the salts thereof” (Boehringer Ingelheim International GmbH, priority 2003, published 2005).

Experiment: first clinical trials, oral administration, plasma levels
Type: in vivo
[1] = conventional tablets containing the compound of formula (I), first clinical trials

Q: What does the source list for `CCCCCCOC(=O)NC(=N)c1ccc(NCc2nc3cc(C(=O)N(CCC(=O)OCC)c4ccccn4)ccc3n2C)cc1` [compound of formula (I), ethyl 3-[(2-{[4-(hexyloxycarbonylaminoiminomethyl)phenylamino]methyl}-1-methyl-1H-benzimidazole-5-carbonyl)pyridin-2-ylamino]propionate]?
A: malabsorption (administered as an oral solution): no instances of malabsorption have been observed; variability of the plasma level patterns (administered as an oral solution, compared with conventional tablets): significantly lower; malabsorption [1]: individual cases of malabsorption; variability of plasma levels [1]: highly variable plasma levels
